Reference: US6686334B2, “Use of inhibitors of protein kinase C epsilon to treat pain” (Regents of the University of California, priority 1998, dated 2004)
Entries after “also recorded” stand apart in the source; their conditions may differ. Where two headings read alike, the source gives them in different places.

Tests used:
[1] = similar dose, normal rat, earlier studies; cited from earlier work
[2] = test system: epinephrine-induced hyperalgesia; assay: Epinephrine-induced mechanical hyperalgesia, paw withdrawal threshold (Ugo Basile Analgesimeter); assay type: in vivo, rat; conditions: for Effect on epinephrine-induced hyperalgesia: rat hindpaw, intradermal, mechanical stimulus; for Percentage decrease in nociceptive threshold in response to epinephrine: epinephrine 100 ng, DAMGO, SQ22536, BIM, Rp-cAMPs 1 μg, WIPTIDE 0.1 μg, larger value = more hyperalgesia
Procedure: The roles of PKC, protein kinase A (“PKA”) and the μ-opioid receptor in mediating epinephrine-induced hyperalgesia were assessed by measuring the effects of: Rp-adenosine 3′, 5′-cyclic monophosphate (“Rp-cAMPs”) and WIPTIDE, both inhibitors of PKA; SQ22536, an inhibitor of adenylyl cyclase, an enzyme activated by PKA; bisindolymaleimide (“BIM”), a nonselective inhibitor of PKC isozymes; and [D-Ala^2, N-Me-Phe^4, Gly^5-ol]-enkephalin (“DAMGO”), μ-opioid receptor agonist. The dose for each inhibitor was 1 μg, except for WIPTIDE, which was administered in a 100 ng dose.

[3] = test system: formalin-induced hyperalgesia; conditions: earlier studies; cited from earlier work
[4] = test system: PGE2-induced hyperalgesia; conditions: earlier studies; cited from earlier work
[5] = test system: tetrodotoxin-resistant sodium current (TTX-RINa); assay type: cell-based, rat; conditions: for Effect on epinephrine-induced potentiation of TTX-RINa: 1 μM epinephrine, propranolol 2 μM, phentolamine 5 μM, Rp-cAMPs 100 μM, BIM 100 μM
[6] = test system: PGE2-induced hyperalgesia; conditions: PGE2 100 ng; inhibitor 1 μg; data from Khasar 1995 or Taiwo and Levine 1991; cited from earlier work
[7] = test system: isoproterenol-induced hyperalgesia; assay: Isoproterenol-induced mechanical hyperalgesia, paw withdrawal threshold; assay type: in vivo, rat; conditions: for Effect on isoproterenol-induced hyperalgesia: rat hindpaw, intradermal
[8] = test system: small diameter DRG neurons; assay: Current-clamp (perforated-patch whole-cell) excitability of cultured DRG neurons; assay type: cell-based, rat
[9] = test system: wild-type mice; assay: von Frey hair paw withdrawal frequency in mice; assay type: in vivo, mouse; conditions: 100 ng intraplantar, wild-type mice, 4, 6.9 or 14.8 grams
Procedure: Mechanical, thermal and chemical nociception were evaluated in wild-type and PKCε-mutant mice. For both wild-type (n=8) and PKCε-mutant (n=8) mice, the basal mechanical nociceptive threshold was measured as the frequency at which mice withdrew their paws after being poked in the hindpaw with a von Frey Hair (“VFH”; Stoelting Co.) applying a force of 4, 6.9 or 14.8 grams.

[10] = test system: prolonged PGE2-induced hyperalgesia; assay: Prolonged hyperalgesia in carrageenan-sensitized rats (chronic inflammatory pain model); assay type: in vivo, rat; conditions: 1 μg at the same time as carrageenan; PGE2 72 or more hours later
From the text: In order to investigate the role, if any, of PKCε in chronic inflammatory pain, the following model system for chronic inflammatory pain was developed. Rats received intradermal hind paw injections of carrageenan, an inflammatory agent. […] This was considered an acute response to the carrageenan-induced inflammation. Although administration of Prostaglandin E2 (“PGE2”), 5-hydroxytryptamine (“5-HT,” serotonin) or CGS-21680 (an adenosine A2-selective receptor agonist) normally causes untreated rats (that is, rats that have not received carrageenan injections) to experience hyperalgesia lasting up to 6 hours, the hyperalgesia experienced by carrageenan-sensitized rats following administration of any one of these substances lasted up to 24 hours.
The prolonged PGE2-induced hyperalgesia normally seen in carrageenan-sensitized rats was inhibited by administration of BIM or εV1-2.
To examine whether protein kinase C modulates the processes by which a brief inflammatory event causes prolonged hyperalgesia many days later, rats received carrageenan and 1 μg BIM injections at the same time. Hyperalgesia was measured 72 hours later, when the rats were treated PGE2. […]

[11] = test system: carrageenan-induced hyperalgesia; assay: Carrageenan-induced acute hyperalgesia, mechanical stimuli; assay type: in vivo, rat; conditions: 1 μg injected at the same time as carrageenan
Procedure: The acetic acid writhing experiments reported in Example 3 indicate that PKCε contributes to inflammatory pain. To investigate whether PKCε mediates hyperalgesia induced by other inflammatory agents, rats received intradermal 10 μl injections of a 1% solution of carrageenan, a potent irritant (Ferreira, S. H. et al, Nature 334, 698-700 (1988)) and three and a half hours later, the rats received no treatment (n=12; labeled “Car-4” on FIG. 13) or intradermal injections of sterile water followed by intradermal injections of either 1 μg εV1-2, a PKCε inhibitory peptide (n=6; labeled “εV” on FIG. 13), or 1 μg S-VεV1-2, a scrambled version of the εV1-2 peptide (n=6; labeled “S-εV” on FIG. 13).
To examine whether protein kinase C modulates the processes by which a brief inflammatory event causes prolonged hyperalgesia many days later, rats received carrageenan and 1 μg BIM injections at the same time. Hyperalgesia was measured 72 hours later, when the rats were treated PGE2. […] Therefore, administration of an inhibitor of PKC either at approximately the same time as the inflammatory agent giving rise to chronic, prolonged hyperalgesia or at about the same time as the hyperalgesia-inducing stimulus can lessen such chronic hyperalgesia.

[12] = test system: diabetes-induced hyperalgesia; assay: Streptozotocin diabetes-induced hyperalgesia, mechanical stimuli; assay type: in vivo, rat; conditions: 1 μg intradermal after sterile water, four weeks after streptozotocin 70 mg/kg
Procedure: Persons with uncontrolled or poorly controlled diabetes frequently experience hyperalgesia. The role of PKCε in diabetic neuropathy was examined in a model of diabetes in which male Sprague-Dawley rats receive subcutaneous injection of streptozotocin (70 mg/kg), a pancreatic β-cell toxin. These rats display hyperglycemia and glucosuria within 24 hours after the injection and show decreased nociceptive thresholds in response to mechanical stimuli administered by Ugo Basile analgesymeter in the hind paw after one week (Ahlgren, S. C. et al, J. Neurophysiology, 68, 2077-2085 (1992); Ahlgren, S. C. and Levine, J. D., Neuroscience 52, 1049-1055 (1993)). Four weeks after the streptozotocin injection, each rat received no treatment (n=8) or an intradermal injection of sterile water followed by a intradermal injections of (1) 1 μg bisindolymaleimide, a protein kinase C inhibitor (n=4; labeled “BIM” on FIG. 12B), (2) 1 μg εV1-2, a PKCε inhibitory peptide (n=8; labeled “PKCεI” on FIG. 12B), or (3) 1 μg S-VεV1-2, a scrambled version of the εV1-2 peptide (n=4; labeled “PCKεI SCR” on FIG. 12B) and were subsequently exposed to mechanical stimuli.

[13] = test system: PGE2-induced hyperalgesia; assay: PGE2-induced mechanical hyperalgesia, paw withdrawal threshold; assay type: in vivo, rat; conditions: PGE2 100 ng; for Effect on PGE2-induced hyperalgesia: rat hindpaw, mechanical stimulus
Procedure: The roles of PKC, protein kinase A (“PKA”) and the μ-opioid receptor in mediating epinephrine-induced hyperalgesia were assessed by measuring the effects of: Rp-adenosine 3′, 5′-cyclic monophosphate (“Rp-cAMPs”) and WIPTIDE, both inhibitors of PKA; SQ22536, an inhibitor of adenylyl cyclase, an enzyme activated by PKA; bisindolymaleimide (“BIM”), a nonselective inhibitor of PKC isozymes; and [D-Ala^2, N-Me-Phe^4, Gly^5-ol]-enkephalin (“DAMGO”), μ-opioid receptor agonist. The dose for each inhibitor was 1 μg, except for WIPTIDE, which was administered in a 100 ng dose. DAMGO was co-injected with epinephrine whereas the other inhibitors were applied 15 minutes prior to epinephrine injection.
For mechanical nociceptive testing, the nociceptive flexion reflex was quantified using an Ugo Basile analgesymeter that applies a constantly increasing force measured in grams (Stoelting, Chicago, Ill.; K. O. Aley, J. D. Levine, J. Neurosci. 17, 8018-23 (1997)). The mean basal mechanical threshold for rats used in these experiments was 105.3+/−2.8 grams. The effects of hyperalgesia-inducing agents epinephrine (100 ng) and PGE2 (100 ng) on mechanical nociceptive thresholds were determined by measuring paw withdrawal frequencies at 15, 20, and 25 minutes after administration of the hyperalgesic agent and then calculating the mean of these three readings.

[14] = test system: vincristine-induced hyperalgesia; assay: Vincristine-induced hyperalgesia, mechanical stimuli (Ugo Basile analgesymeter); assay type: in vivo, rat; conditions: vincristine 100 μg/kg intravenously daily, after the second day
Procedure: (§1) Humans undergoing chemotherapy frequently experience hyperalgesia. Vincristine is a chemotherapeutic drug known to cause such hyperalgesia, and a rat model of vincristine-induced hyperalgesia was established as follows. Vincristine (100 μg/kg in saline; Sigma Chemical Catalog) was administered intravenously daily to each of 32 rats over a period of two weeks.
To determine whether administration of an inhibitor of PKCε would lessen vincristine-induced hyperalgesia in the rat model described above, on the 13th day of vincristine treatment, rats received no treatment (n=16) or intradermal injections of sterile water followed by intradermal injections of either 1 μg εV1-2, a PKCε inhibitory peptide (n=8; labeled “PKCεI” on FIG. 12A), or 1 μg S-VεV1-2, a scrambled version of the εV1-2 peptide (n=8; labeled “PCKεI SCR” on FIG. 12A), 20-30 minutes before administration of a mechanical stimulus.

[15] = Rotorod analysis of motor deficits; assay type: in vivo, rat; conditions: vincristine 100 μg/kg intravenously daily
Procedure: as §1

[16] = 10 μM propranolol 30 seconds prior to and with 1 μM epinephrine
[17] = after 1 μg epinephrine injection

## Cc1ccc(N(CC2=NCCN2)c2cccc(O)c2)cc1 [phentolamine]
[1]
  Effect on basal paw threshold: no effect
[2]
  Effect on epinephrine-induced hyperalgesia: did not significantly affect
[3]
  Effect on formalin-induced hyperalgesia: significantly reversed
[4]
  Effect on the ability of rolipram to prolong PGE2-induced hyperalgesia: inhibited

## COc1ccc2c(c1)c(CC(=O)O)c(C)n2C(=O)c1ccc(Cl)cc1 [indomethacin]
[2]
  Effect on epinephrine-induced hyperalgesia: Neither indomethacin treatment nor sympathectomy had any effect

## Nc1ncnc2c1ncn2[C@@H]1O[C@@H]2CO[P@@](O)(=S)O[C@H]2[C@H]1O [Rp-cAMPs, Rp-adenosine 3′, 5′-cyclic monophosphate]
[5]
  Effect on epinephrine-induced potentiation of TTX-RINa: abolished

## Nc1ncnc2c1ncn2C1CCCO1 (stereo not shown) [SQ22536]
[6]
  Percentage decrease in nociceptive threshold in response to PGE2: 10.0 ± 2.9 %
[2]
  Percentage decrease in nociceptive threshold in response to epinephrine: 9.5 ± 2.4 %

## CC(C)NCC(O)COc1cccc2ccccc12 (stereo not shown) [propranolol]
[7]
  Effect on isoproterenol-induced hyperalgesia: significantly attenuated
[5]
  Effect on epinephrine-induced potentiation of TTX-RINa: eliminated this potentiation
[2]
  Effect on epinephrine-induced hyperalgesia: significantly attenuated
[8]; [16]
  First-spike latency after epinephrine addition: 233 ± 10 ms
  Spike number after epinephrine addition: 1.3±0.2
[8]; 10 μM propranolol, 1 μM epinephrine
  Effect on epinephrine-induced increase in spike number and decrease in first-spike latency: abolished

## CNC[C@H](O)c1ccc(O)c(O)c1 [Epinephrine, epinephrine]
[9]
  Percent-withdrawal response to VFH stimulus: dramatically increased
[5]; epinephrine 1 μM
  Effect on TTX-RINa: marked potentiation
[2]; [17]
  Duration of hyperalgesia: approximately 2 hours
  Onset latency of hyperalgesia (significant): 2 min
  Time to peak hyperalgesic effect: ≤ 5 min
[2]; intradermal 1 ng to 1 μg, dorsal hindpaw
  Effect on paw withdrawal threshold: dose-dependent decrease

## CN(C)CCCn1cc(C2=C(c3c[nH]c4ccccc34)C(=O)NC2=O)c2ccccc21 [BIM, bisindolymaleimide I]
[7]; isoproterenol 100 ng, BIM 1 μg, WIPTIDE 0.1 μg
  Percentage decrease in nociceptive threshold in response to isoproterenol: 7.1 ± 2.4 %
[7]
  Effect on isoproterenol-induced hyperalgesia: significantly attenuated
[5]
  Effect on epinephrine-induced potentiation of TTX-RINa: significantly decreased
[2]
  Percentage decrease in nociceptive threshold in response to epinephrine: 4.6 ± 2.1 %
  Effect on epinephrine-induced hyperalgesia: inhibits epinephrine-induced hyperalgesia to a similar extent as εV1-2
[10]
  Effect on prolonged hyperalgesia on PGE2 treatment after carrageenan: attenuated
[11]
  Effect on acute hyperalgesia induced by carrageenan: attenuated
[12]
  Effect on diabetes-induced decrease in nociceptive threshold: somewhat greater reduction in the percentage decrease in nociceptive threshold than PKCε I; also recorded: markedly reduced
[13]; BIM 1 μg, WIPTIDE 0.1 μg
  Percentage decrease in nociceptive threshold in response to PGE2: 33.4 ± 4.1%
[13]
  Effect on PGE2-induced hyperalgesia: no effect

## CC[C@]1(O)C[C@H]2CN(CCc3c([nH]c4ccccc34)[C@@](C(=O)OC)(c3cc4c(cc3OC)N(C=O)[C@H]3[C@@](O)(C(=O)OC)[C@H](OC(C)=O)[C@]5(CC)C=CCN6CC[C@]43[C@@H]65)C2)C1 [Vincristine]
[14]
  Effect on mechanical nociceptive thresholds: acute dose-dependent decrease
[15]
  Motor deficits: did not show any significant motor deficits

## WIPTIDE
[7]
  Effect on isoproterenol-induced hyperalgesia: almost completely abolished
[13]
  Effect on PGE2-induced hyperalgesia: significantly attenuated

## CC(C)NCC(O)c1ccc(O)c(O)c1 (stereo not shown) [Isoproterenol, isoproterenol]
[7]; intradermal injection
  Hyperalgesia produced in the absence of epinephrine: dose-dependent hyperalgesia
[7]; isoproterenol 100 ng alone
  Percentage decrease in nociceptive threshold in response to isoproterenol alone: 25.8 ± 0.9%

## CCCCC[C@H](O)/C=C/[C@H]1[C@H](O)CC(=O)[C@@H]1C/C=C\CCCC(=O)O [PGE2, prostaglandin E2]
[9]
  Percent-withdrawal response to VFH stimulus: dramatically increased
